Reference: the NIST ThermoML archive (doi:10.1021/je050277k)

O=C1CCCCCN1 [1-aza-2-cycloheptanone]
Conditions | vapor or sublimation pressure [kPa]
293.43 K, Crystal, Calculated from knudsen effusion weight loss | 0.000153
298.39 K, Crystal, Calculated from knudsen effusion weight loss | 0.000275
302.3 K, Crystal, Transpiration method | 0.00043
303.32 K, Crystal, Calculated from knudsen effusion weight loss | 0.000474
305.4 K, Crystal, Transpiration method | 0.00066
306.2 K, Crystal, Transpiration method | 0.0007
308.31 K, Crystal, Calculated from knudsen effusion weight loss | 0.000813
308.38 K, Crystal, Calculated from knudsen effusion weight loss | 0.000858
309.2 K, Crystal, Transpiration method | 0.00093
312.2 K, Crystal, Transpiration method | 0.00127
313.22 K, Crystal, Calculated from knudsen effusion weight loss | 0.00143
314.7 K, Crystal, Transpiration method | 0.00175
316.7 K, Crystal, Transpiration method | 0.0021
318.09 K, Crystal, Calculated from knudsen effusion weight loss | 0.00235
321.1 K, Crystal, Transpiration method | 0.00327
321.3 K, Crystal, Transpiration method | 0.00365
322.98 K, Crystal, Calculated from knudsen effusion weight loss | 0.00393
323.06 K, Crystal, Calculated from knudsen effusion weight loss | 0.00379
323.9 K, Crystal, Transpiration method | 0.00427
326.3 K, Crystal, Transpiration method | 0.00568
327.93 K, Crystal, Calculated from knudsen effusion weight loss | 0.00636
328 K, Crystal, Calculated from knudsen effusion weight loss | 0.0061
328.3 K, Crystal, Transpiration method | 0.00668
330.2 K, Crystal, Transpiration method | 0.00801
332.89 K, Crystal, Calculated from knudsen effusion weight loss | 0.01
332.93 K, Crystal, Calculated from knudsen effusion weight loss | 0.0105
333.2 K, Crystal, Transpiration method | 0.01064
336.3 K, Crystal, Transpiration method | 0.01422
337.4 K, Crystal, Transpiration method | 0.01727
337.82 K, Crystal, Calculated from knudsen effusion weight loss | 0.0155
339 K, Crystal, Transpiration method | 0.01833
345.2 K, Liquid, Transpiration method | 0.0319
345.8 K, Liquid, Transpiration method | 0.0322
347.8 K, Liquid, Transpiration method | 0.0376
350.9 K, Liquid, Transpiration method | 0.0457
353.9 K, Liquid, Transpiration method | 0.0564
355.4 K, Liquid, Transpiration method | 0.0612
357 K, Liquid, Transpiration method | 0.071
359.1 K, Liquid, Transpiration method | 0.0758
360.2 K, Liquid, Transpiration method | 0.089
362.1 K, Liquid, Transpiration method | 0.0992
363.1 K, Liquid, Transpiration method | 0.103
364.9 K, Liquid, Transpiration method | 0.1189
366.3 K, Liquid, Transpiration method | 0.1294
369.7 K, Liquid, Transpiration method | 0.16
372.2 K, Liquid, Transpiration method | 0.1866
